Results reported in publication PMC3529809 (Steroids, 2012).
Entries after “also recorded” stand apart in the source; their conditions may differ.

Assays:
MCF-7 cells = conditions: cited from earlier work
[1] = system: ZR-75-1 breast cancer xenografts; conditions: twice daily s.c. injections of 0.3 mg, nude mice; cited from earlier work
[2] = system: TFF1 (pS2), PGR (PR), CTSD (cathepsin D) transcription; test: QRT-PCR of endogenous ER-target genes in ERα-transfected HEK-293 cells; assay type: cell-based, human; conditions: 10 nM E2 or 5 µM sterol, 24 h, Fig. 5A
human ERβ [3] = molecular target: T1, human ERβ (Homo sapiens, UniProt Q92731); test: [3H] E2 ligand binding competition; conditions: IC50 for ERβ, competition with 30 nM [3H] E2, Fig. 6B
[4] = system: diethylnitrosamine-induced hepatic tumors; conditions: 0.6% in the diet, rats; cited from earlier work
[5] = system: MCF-7 human breast cancer cells; test: Cell proliferation BrdU assay; assay type: cell-based; conditions: 48 h BrdU; 10 nM E2, 5 µM sterols; Fig. 7
[6] = system: NMU and DMBA induced tumors of the mammary gland; conditions: oral, rats; cited from earlier work
NRF1 (NRF-1) expression = test: QRT-PCR of NRF1 in ERβ-transfected HepG2 cells; assay type: cell-based, human; conditions: 10 nM E2 or 5 µM sterol, 24 h, Fig. 5B
ERβ = conditions: expressed in COS-1 cells, cited from earlier work
[7] = system: ERα+ MCF-7 and triple-negative MDA-MB-231 and Hs578T breast cancer cells; conditions: 100 µM; cited from earlier work
human ERβ [8] = molecular target: T1, human ERβ; test: ERELUC transient transfection reporter assay, ERβ in HepG2 cells; assay type: cell-based; conditions: 5 µM, 24 h, Fig. 1B; result in words

T1 sequence (Q92731 whole entry): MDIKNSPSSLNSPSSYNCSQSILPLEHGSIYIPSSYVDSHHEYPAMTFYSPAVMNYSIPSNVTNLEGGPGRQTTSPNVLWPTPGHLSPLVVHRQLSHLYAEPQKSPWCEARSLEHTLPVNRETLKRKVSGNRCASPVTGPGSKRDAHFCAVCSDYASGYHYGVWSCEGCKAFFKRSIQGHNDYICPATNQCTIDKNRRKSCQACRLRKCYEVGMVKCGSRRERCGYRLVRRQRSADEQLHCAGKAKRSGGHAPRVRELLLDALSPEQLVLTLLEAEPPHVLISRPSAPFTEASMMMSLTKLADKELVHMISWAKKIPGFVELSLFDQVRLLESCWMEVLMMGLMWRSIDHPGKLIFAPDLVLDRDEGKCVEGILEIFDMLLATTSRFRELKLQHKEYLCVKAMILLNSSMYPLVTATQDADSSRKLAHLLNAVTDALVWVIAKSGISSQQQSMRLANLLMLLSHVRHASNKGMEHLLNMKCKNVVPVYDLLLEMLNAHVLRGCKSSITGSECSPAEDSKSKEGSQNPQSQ

For `C[C@]12CC[C@H](O)CC1=CC[C@@H]1[C@@H]2CC[C@]2(C)C(=O)CC[C@@H]12` [DHEA, 3β-hydroxy-androst-5-ene-17-one], which “proliferation of MCF-7 cells” value (MCF-7 cells; 1–10 µM concentrations) is on record?
The value was “stimulated proliferation”.

What about the MCF-7 cell growth (MCF-7 cells; DHEA 0.5 µM, ADIOL 2 nM) of the same compound?
Its MCF-7 cell growth is “stimulated”.

What about the MCF-7 cell proliferation (MCF-7 cells; less than E2) of the same compound?
Its MCF-7 cell proliferation is “increased cell proliferation”.

And the “estrone-stimulated growth of xenografts” value [1]?
The value was “suppressed”.

And the “CTSD (cathepsin D) expression” value [2]?
The value was “increased”.

What about the “PGR (PR) expression” value [2] of the same compound?
Its value is “increased”.

What about the “TFF1 (pS2) expression” value [2] of the same compound?
The value was “increased”.

And the IC50 (human ERβ [3])?
Its IC50 is 500000 nM.

And the tumor cell growth [4]?
Its tumor cell growth is “inhibited tumor cell growth”.

What about the MCF-7 cell proliferation [5] of the same compound?
The MCF-7 cell proliferation was “increased”.

And the “effect in the mammary gland after chemical induction of tumors” value [6]?
The value was “anti-carcinogenic effects”.

And the “NRF-1 mRNA expression” value (NRF1 (NRF-1) expression)?
Its value is “statistically significant increase; also recorded: low induction”.

What about the Kd (ERβ; read-out: Kd for ERβ) of the same compound?
Its Kd is roughly 500 nM.

And the Ki (ERβ; read-out: Ki for ERβ)?
Its Ki is roughly 500 nM.

And the “proliferation, cell cycle progression and migration” value [7]?
The value was “inhibit”.

What about the “ERELUC activity in ERβ-expressing HepG2 cells” value (human ERβ [8]) of the same compound?
Its value is “significantly induced”.
